The numbers were not newly measured in the PKSmart pharmacokinetics tables (Seal et al. 2025), which cites them from elsewhere.

As a reminder, the MRT is a mean duration of stay, worked out from the concentration-time curve. For orientation: Vd means the apparent volume that relates the amount in the body to the concentration in plasma or blood. Broadly, the clearance is the rate of elimination divided by the concentration. The term half-life denotes the time in which the quantity being followed falls by half. One may read the fraction unbound as the share of the substance not bound to proteins or other matrix.

Where a SMILES comes first, the peptide text is derived from it. Bridges are numbered along the chain shown (N, C = ends). [ ]: non-standard residue; d: D form. Mpa = O=C(O)CCS

The nature of the data set: Lombardo, Berellini, Obach 2018, Drug Metab Dispos 46:1466, doi 10.1124/dmd.118.082966. The note with it: human; for MRT / Vd / clearance / half-life: in vivo, iv; for fraction unbound: plasma.

Regarding `Cc1ncc([N+](=O)[O-])n1C[C@H](O)CCl`, the MRT was 18.1 h, the distribution volume (Vd) was 1.16 L/kg, the clearance was 1.08 mL/min/kg and the half-life was 12 h. In addition, the fraction unbound was 0.88.
Regarding `CC1=CC[C@@H](C(C)(C)O)C[C@@H]1O`, the MRT is 3.1 h, the Vd was 0.43 L/kg, the clearance is 2.7 mL/min/kg and the half-life was 1.9 h.
Regarding `CC1(C)S[C@@H]2C(NC(=O)COc3ccccc3)C(=O)N2C1C(=O)O` (stereo not given in full), the mean residence time MRT is 1 h, the Vd was 0.41 L/kg, the clearance is 6.8 mL/min/kg and the half-life was 0.84 h.
On to `O=C(O)CCCCON=C(c1cccnc1)c1cccc(C(F)(F)F)c1`, for which the MRT was 6.8 h, the Vd is 0.43 L/kg, the clearance is 1.05 mL/min/kg and the half-life is 7.54 h. The fraction unbound is 0.033.
For `COCC(NC(C)=O)C(=O)NCc1ccccc1` (stereo not given), the mean residence time MRT was 17.2 h, the Vd was 0.58 L/kg, the clearance is 0.57 mL/min/kg and the half-life is 12.3 h. Moreover, the fraction unbound is 0.85.
With `CN/C(=N\CCSCc1nc[nH]c1C)NC#N`, the MRT is 2.5 h, the Vd is 1.2 L/kg, the clearance was 8.1 mL/min/kg and the half-life was 2.2 h.
Take `O=C(NC1CCN(CCc2c[nH]c3ccccc23)CC1)c1ccccc1`: the MRT is 4.1 h, the Vd was 4.9 L/kg, the clearance was 20 mL/min/kg and the half-life is 4.3 h. Also, the fraction unbound is 0.15.
For `COCC(=O)Nc1c(I)c(C(=O)NCC(O)CO)c(I)c(C(=O)N(C)CC(O)CO)c1I` (stereo not given), the MRT is 2.6 h, the Vd is 0.22 L/kg, the clearance was 1.4 mL/min/kg and the half-life was 2.6 h. Further, the fraction unbound is 0.99.
With `CCN(CC)C(=O)N[C@H]1C=C2c3cccc4[nH]cc(c34)C[C@H]2N(C)C1`, the mean residence time MRT was 2.17 h, the Vd is 1.73 L/kg, the clearance is 13.3 mL/min/kg and the half-life is 1.8 h.
Consider `CC(C(O)c1ccc(O)cc1)N1CCC(Cc2ccccc2)CC1` (stereo not given), for which the MRT is 4.9 h, the volume of distribution (Vd) is 19 L/kg, the clearance was 64.6 mL/min/kg and the half-life was 4.32 h.
Turning to `CN(C)c1ccc(O)c2c1C[C@H]1C[C@H]3[C@H](N(C)C)C(O)=C(C(N)=O)C(=O)[C@@]3(O)C(O)=C1C2=O`, the fraction unbound was 0.005.
For `CCC(=O)O[C@H](CC(=O)[O-])C[N+](C)(C)C`, the MRT is 2.15 h, the Vd was 0.3 L/kg, the clearance is 2.33 mL/min/kg and the half-life is 1.28 h.
In the case of `Cc1c(-c2ccc(O)cc2)n(Cc2ccc(OCCN3CCCCCC3)cc2)c2ccc(O)cc12`, the fraction unbound is 0.02.
With `CC(C)(C)NC(=O)C1CC[C@H]2[C@@H]3C=CC4=CC(C(=O)O)CC[C@]4(C)[C@H]3CC[C@]12C` (stereo not given in full), the MRT was 27 h, the distribution volume (Vd) is 0.54 L/kg, the clearance was 0.33 mL/min/kg and the half-life is 27 h.
Consider `NS(=O)(=O)c1cc2c(cc1C(F)(F)F)NCNS2(=O)=O`, for which the MRT was 3.8 h, the Vd was 2.2 L/kg, the clearance was 9.7 mL/min/kg and the half-life was 5.2 h.
Consider `C[N+]1(C)[C@@H]2CC(OC(=O)C(O)(c3cccs3)c3cccs3)C[C@H]1[C@@H]1O[C@@H]12` (stereo not given in full), for which the mean residence time MRT was 42.3 h, the Vd is 32 L/kg and the fraction unbound was 0.28.
On to `O=S(=O)(O)c1cc(O)ccc1O`, for which the MRT was 2.41 h, the volume of distribution (Vd) is 0.12 L/kg, the clearance is 0.87 mL/min/kg and the half-life is 2.01 h.
As for `O=C1C[C@@H](c2ccccc2)Oc2cc(O)cc(O)c21`, the MRT was 0.47 h, the Vd was 0.8 L/kg, the clearance is 27 mL/min/kg and the half-life is 0.7 h.
Take `CS(=O)(=O)c1ccc(C(=O)Nc2ccc(Cl)c(-c3ccccn3)c2)c(Cl)c1`: the MRT was 341 h, the clearance is 0.01 mL/min/kg and the half-life was 245 h.
For the compound `Nc1nc(C(=NO)C(=O)NC2C(=O)N3C(C(=O)O)=C(C=C4CCN([C@@H]5CCNC5)C4=O)CS[C@H]23)ns1` (stereo not given in full), the MRT is 3 h, the Vd is 0.27 L/kg, the clearance was 1.5 mL/min/kg and the half-life was 3.3 h. Also, the unbound share (fraction unbound) is 0.62.
Regarding `C[C@]12CC[C@H]3[C@@H](CC=C4CC(=O)CC[C@@]43C)[C@@H]1CC[C@@H]2O`, the MRT is 0.25 h, the Vd is 0.35 L/kg, the clearance was 24.5 mL/min/kg and the half-life is 0.17 h. The fraction unbound is 0.057.
Regarding `CNC(=O)c1cnn(-c2nc(N)c3ncn([C@@H]4O[C@H](CO)[C@@H](O)[C@H]4O)c3n2)c1`, the MRT is 2.1 h, the Vd is 0.94 L/kg, the clearance is 7.3 mL/min/kg and the half-life was 2 h. The fraction unbound is 0.7.
`CS(=O)(=O)c1ccc(C2=C(c3ccccc3)C(=O)OC2)cc1`: the MRT was 10.8 h, the Vd is 1.3 L/kg, the clearance was 2 mL/min/kg and the half-life was 7.5 h. For the same compound, the fraction unbound is 0.13.
On to `COc1ccc2[n-]c([S+](O)Cc3ncc(C)c(OC)c3C)nc2c1` (stereo not given), for which the MRT was 0.48 h, the Vd is 0.24 L/kg, the clearance is 8.4 mL/min/kg and the half-life is 0.58 h.
Turning to `CC[C@@]1(O)C(=O)OCc2c1cc1n(c2=O)Cc2c-1nc1ccc(O)cc1c2[Si](C)(C)C(C)(C)C`, the MRT is 1.3 h, the Vd was 0.47 L/kg, the clearance was 6 mL/min/kg and the half-life is 1.4 h.
In the case of `N=C(N)NCCCC1NC(=O)CCSSCC(C(N)=O)NC(=O)C2CCCN2C(=O)C(Cc2c[nH]c3ccccc23)NC(=O)C(CC(=O)O)NC(=O)CNC1=O` (stereo not given) ([Mpa]RGDWPC-NH2; disulfide 1-7; configuration not given here), the MRT was 2.45 h, the Vd was 0.42 L/kg, the clearance was 2.88 mL/min/kg and the half-life is 2.12 h.
On to `CC(C)(C)S(=O)(=O)CC(Cc1ccccc1)C(=O)NC(Cc1c[nH]cn1)C(=O)N[C@@H](CC1CCCCC1)[C@@H](O)C(O)C1CC1` (stereo not given in full), for which the MRT is 1.1 h, the Vd is 0.77 L/kg, the clearance is 11.6 mL/min/kg and the half-life is 5.2 h. Also, the fraction unbound is 0.0558.
With `COCOCC(CCC1(C(=O)NC2CCC(C(=O)O)CC2)CCCC1)C(=O)O` (stereo not given), the MRT was 1.81 h, the Vd is 0.25 L/kg, the clearance is 2.3 mL/min/kg and the half-life was 16 h. In addition, the fraction unbound was 0.872.
Turning to `CC(C)(O)[C@@H]1CC[C@](C)([C@H]2[C@@H](O)C[C@@]3(C)[C@@H]4C[C@H](O[C@@H]5O[C@H](CO)[C@@H](O)[C@H](O)[C@H]5O)[C@H]5C(C)(C)[C@@H](O[C@@H]6OC[C@@H](O)[C@H](O)[C@H]6O)CC[C@@]56C[C@@]46CC[C@]23C)O1`, the MRT was 2.78 h, the distribution volume (Vd) is 0.12 L/kg, the clearance is 0.74 mL/min/kg and the half-life was 2.65 h. Further, the fraction unbound is 0.14.
On to `O=C(O)C1=C(C[n+]2ccc(CCS(=O)(=O)[O-])cc2)CSC2C(NC(=O)C(NC(=O)c3[nH]cnc3C(=O)O)c3ccccc3)C(=O)N12` (stereo not given), for which the MRT is 2.1 h, the Vd is 0.21 L/kg, the clearance was 1.7 mL/min/kg and the half-life is 1.8 h.
`CN(C)CCCO[C@@H]1[C@H]2OC(C)(C)O[C@H]2O[C@@H]1[C@H](O)CO`: the MRT is 5 h, the Vd was 1.04 L/kg, the clearance is 3.48 mL/min/kg and the half-life was 4.07 h. In addition, the fraction unbound is 0.97.
Regarding `O=C1CCC[C@@H]2[C@H]3CCC[N@+]4(O)CCC[C@@H](CN12)[C@@H]34`, the MRT is 1.33 h, the Vd is 0.61 L/kg, the clearance was 7.66 mL/min/kg and the half-life was 1.69 h.
For `Cc1cccc([C@H](C)c2c[nH]cn2)c1C`, the MRT was 2.5 h, the Vd was 1.6 L/kg, the clearance is 11 mL/min/kg and the half-life is 2.2 h. In addition, the fraction unbound is 0.06.
Turning to `CC(C)(C)NC[C@@H](O)COc1cccc2c1CCC(=O)N2`, the clearance was 10.1 mL/min/kg and the half-life was 4.7 h.
